According to ChEMBL document CHEMBL1201862, “PubChem BioAssay data set” (2004):
Active and inactive are the calls of the source.

What was measured:
[1] = molecular target: Protein disulfide-isomerase (Homo sapiens, UniProt P07237); assay: inhibition of PDI-driven insulin aggregation – biochemical, turbidity, absorbance, cherry-picked samples, dose response (AID 602350); type: functional
Melanocortin receptor 4 = Melanocortin receptor 4 (Homo sapiens, UniProt P32245); assay: inhibitors of MC4R cAMP signaling – cell-based, TR-FRET, biased antagonists, dose response (AID 602298); type: functional;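 further: antagonist potency against agonist-stimulated cAMP production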
[2] = cAMP pathway inhibition in counterscreen cell line – TR-FRET cAMP detection, counter-screen for MC4R biased antagonist project, dose response (AID 602305); type: functional, cell-based;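 further: U2OS cells stimulated with forskolin near its EC80 as the cAMP inducer; potency is for inhibition of forskolin-stimulated cAMP signaling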
[3] = molecular target: SWI/SNF-related matrix-associated actin-dependent regulator of chromatin subfamily A member 2 (Homo sapiens, UniProt P51531); assay: Luminescence-based cell-based high throughput dose response assay to identify activators of the function of SWI/SNF related, matrix associated, actin dependent regulator of chromatin, subfamily a, member 2 (SMARCA2, BRM).; type: functional
[4] = general cell-killing toxicity readout – plate reader, dry powder samples, cytotoxicity control for PAX8 inhibitor project, dose response (AID 743021); type: functional, cell-based
Prothrombin = Prothrombin (Bos taurus, UniProt P00735); assay: thrombin protease inhibitors – biochemical, fluorescence polarization, uHTS hits, dose response (AID 602369); type: functional
[5] = Luminescence Cell-Based Dose Response HTS to Identify Inhibitors of 5'UTR Stem-Loop Driven Prion Protein mRNA Translation in H4 Neuroglioblastoma Cells. [Related pubchem assays: 1827 (Project Summary), 1813 (Primary HTS)]; type: functional
Paired box protein Pax-8 = Paired box protein Pax-8 (Homo sapiens, UniProt Q06710); assay: PAX8 transcriptional activity inhibition in RMG-I – RMG-I cells, luciferase, cherry-pick, dose response (AID 687027); type: functional, cell-based;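 further: luciferase reporter driven by Pax8 target thyroperoxidase promoter measured by SteadyGlo luminescence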
[6] = alpha-synuclein stem-loop luciferase translation blockers – H4 neuroglioma cells, luminescence, confirmation (AID 1988); type: functional, cell-based
[7] = luciferase reporter signal suppression in cells – H4 neuroglioma cells, luminescence, dose response (AID 1990); type: functional, cell-based
[8] = Counterscreen for activators of the function of SWI/SNF related, matrix associated, actin dependent regulator of chromatin, subfamily a, member 2 (SMARCA2, BRM): Luminescence-based cell-based high throughput dose response assay to identify non-selective compounds using the VP16 reporter assay.; type: functional
[9] = molecular target: 72 kDa type IV collagenase (Homo sapiens, UniProt P08253); assay: Dose Response validation of uHTS RPN11 inhibitor hits using a MMP-2 Fluorescence assay.; type: functional
[10] = molecular target: 26S proteasome non-ATPase regulatory subunit 14 (Homo sapiens, UniProt O00487); assay: inhibition of proteasome subunit RPN11 – biochemical, fluorescence polarization, uHTS hits, confirmation (AID 602368); type: functional
[11] = molecular target: T1, Orexin/Hypocretin receptor type 1 (Homo sapiens, UniProt O43613); assay: Fluorescence-based cell-based high throughput dose response assay for antagonists of the orexin 1 receptor (OX1R; HCRTR1). [Related pubchem assays (depositor defined):AID434989, AID435008, AID463079, AID485270, AID492963, AID492964, AID492965, AID493232, AID504717, AID504718]; type: functional
Orexin receptor type 2 [12] = molecular target: T2, Orexin receptor type 2 (Homo sapiens, UniProt O43614); assay: Counterscreen assay for antagonists of the orexin 1 receptor (OX1R; HCRTR1): Fluorescence-based cell-based dose response assay for antagonists of the orexin 2 receptor (OX2R; HCRTR2), run by assay provider.; type: functional
CHO-K1 = assay: Counterscreen for antagonists of the orexin 1 receptor (OX1R; HCRTR1): Homogeneous time resolved fluorescence (HTRF)-based cell-based dose response assay to identify antagonists of the parental CHO-K1 cell line. [Related pubchem assays (depositor defined):AID434989, AID435008, AID463079, AID485270, AID492963, AID492964, AID492965, AID493232, AID504699, AID504701]; type: functional; conditions: Cricetulus griseus;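 further: potency for inhibition of ATP-stimulated IP1 production as antagonists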
[13] = Counterscreen for antagonists of the orexin 1 receptor (OX1R; HCRTR1): Fluorescence-based cell-based high throughput dose response assay to identify antagonists of the parental CHO cell line. [Related pubchem assays (depositor defined):AID434989, AID435008, AID463079, AID485270, AID492963, AID492964, AID492965, AID493232, AID504699, AID504701]; type: functional
Orexin receptor type 2 [14] = molecular target: T2, Orexin receptor type 2; assay: Counterscreen assay for antagonists of the orexin 1 receptor (OX1R; HCRTR1): Homogeneous Time Resolved Fluorescence (HTRF)-based cell-based dose response assay for antagonists of the orexin 2 receptor (OX2R; HCRTR2), run by assay provider.; type: functional
[15] = molecular target: T1, Orexin/Hypocretin receptor type 1; assay: Homogeneous Time Resolved Fluorescence (HTRF)-based cell-based high throughput dose response assay for antagonists of the orexin 1 receptor (OX1R; HCRTR1). [Related pubchem assays (depositor defined):AID434989, AID435008, AID463079, AID485270, AID492963, AID492964, AID492965, AID493232, AID504717, AID504718]; type: functional
[16] = molecular target: Calcium/calmodulin-dependent protein kinase type II subunit beta (Homo sapiens, UniProt Q13554); type: functional
[17] = molecular target: Calcium/calmodulin-dependent protein kinase type II subunit gamma (Homo sapiens, UniProt Q13555); type: functional
[18] = molecular target: Calcium/calmodulin-dependent protein kinase type II subunit delta (Homo sapiens, UniProt Q13557); type: functional
Aurora kinase B = Aurora kinase B (Homo sapiens, UniProt Q96GD4); type: functional
[19] = molecular target: Serine/threonine-protein kinase TAO1 (Homo sapiens, UniProt Q7L7X3); type: functional
[20] = molecular target: Receptor-type tyrosine-protein kinase FLT3 (Homo sapiens, UniProt P36888); type: functional;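 further: FLT3 was tested as one member of a kinome-wide kinase panel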
SRSF protein kinase 1 = SRSF protein kinase 1 (Homo sapiens, UniProt Q96SB4); type: functional;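 further: measured as one member of a kinome-wide kinase profiling panel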
[21] = molecular target: Mitogen-activated protein kinase kinase kinase kinase 4 (Homo sapiens, UniProt O95819); type: functional
[22] = molecular target: Tyrosine-protein kinase JAK2 (Homo sapiens, UniProt O60674); type: functional;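 further: JAK2 tested as one member of a kinase panel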
[23] = molecular target: MAP/microtubule affinity-regulating kinase 3 (Homo sapiens, UniProt P27448); type: functional;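 further: MARK3 affinity measured as one member of a kinome panel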
[24] = molecular target: Vascular endothelial growth factor receptor 2 (Homo sapiens, UniProt P35968); type: functional
[25] = molecular target: Insulin-like growth factor 1 receptor (Homo sapiens, UniProt P08069); assay: Navigating the Kinome. Panel member name: IGF1R; type: functional
[26] = molecular target: Fibroblast growth factor receptor 3 (Homo sapiens, UniProt P22607); type: functional
[27] = molecular target: Dual specificity tyrosine-phosphorylation-regulated kinase 1B (Homo sapiens, UniProt Q9Y463); assay: Navigating the Kinome. Panel member name: DYRK1B; type: functional
[28] = molecular target: Tyrosine-protein kinase JAK3 (Homo sapiens, UniProt P52333); type: functional
[29] = molecular target: Serine/threonine-protein kinase PAK 4 (Homo sapiens, UniProt O96013); type: functional;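 further: value obtained within a kinome profiling panel in which PAK4 was one of the panel members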
[30] = molecular target: Tyrosine-protein kinase ABL1 (Homo sapiens, UniProt P00519); type: functional
[31] = molecular target: Serine/threonine-protein kinase pim-2 (Homo sapiens, UniProt Q9P1W9); type: functional;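 further: value comes from a broad kinase panel profiling study in which PIM2 was one of the panel members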
[32] = molecular target: Tyrosine-protein kinase Blk (Homo sapiens, UniProt P51451); type: functional;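 further: obtained as one member of a kinome-wide kinase assay panel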
[33] = molecular target: Dual specificity tyrosine-phosphorylation-regulated kinase 1A (Homo sapiens, UniProt Q13627); type: functional;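 further: measured against DYRK1A as one member of a broad kinome profiling panel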
[34] = molecular target: Tyrosine-protein kinase Lyn (Homo sapiens, UniProt P07948); type: functional;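 further: lyn as one member of a kinase panel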
[35] = molecular target: Mitogen-activated protein kinase 13 (Homo sapiens, UniProt O15264); type: functional
Activin receptor type-1 = Activin receptor type-1 (Homo sapiens, UniProt Q04771); assay: Navigating the Kinome. Panel member name: ACVR1; type: functional
[36] = molecular target: Vascular endothelial growth factor receptor 1 (Homo sapiens, UniProt P17948); type: functional;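 further: measured within a kinome-wide profiling panel, FLT1 as the panel member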
[37] = molecular target: Tyrosine-protein kinase ITK/TSK (Homo sapiens, UniProt Q08881); type: functional;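 further: affinity for ITK measured as one member of a broad kinase panel profiling binding across the kinome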
[38] = molecular target: Leucine-rich repeat serine/threonine-protein kinase 2 (Homo sapiens, UniProt Q5S007); type: functional;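 further: value from a broad kinome-wide panel profiling study in which LRRK2 was one of the kinases tested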
[39] = molecular target: Serine/threonine-protein kinase D2 (Homo sapiens, UniProt Q9BZL6); type: functional;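 further: measured against PRKD2 as one member of a kinome-wide kinase profiling panel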
Aurora kinase A = Aurora kinase A (Homo sapiens, UniProt O14965); type: functional;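 further: value from the Navigating the Kinome kinase panel profiling, panel entry STK6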
[40] = molecular target: Receptor tyrosine-protein kinase erbB-2 (Homo sapiens, UniProt P04626); assay: Navigating the Kinome. Panel member name: ERBB2; type: functional
[41] = molecular target: Tyrosine-protein kinase Fyn (Homo sapiens, UniProt P06241); type: functional
[42] = molecular target: Cyclin-dependent kinase 1 (Homo sapiens, UniProt P06493); type: functional;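 further: Kinome-wide panel profiling, with the target listed as panel member CDC2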
[43] = molecular target: Mitogen-activated protein kinase 1 (Homo sapiens, UniProt P28482); type: functional
[44] = molecular target: Proto-oncogene tyrosine-protein kinase ROS (Homo sapiens, UniProt P08922); type: functional;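 further: ROS1 tested as one member of a kinome-wide kinase panel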
[45] = molecular target: Dual specificity protein kinase CLK4 (Homo sapiens, UniProt Q9HAZ1); type: functional
[46] = molecular target: cAMP-dependent protein kinase catalytic subunit alpha (Homo sapiens, UniProt P17612); type: functional

Aurora kinase B, sequence (Q96GD4 whole entry): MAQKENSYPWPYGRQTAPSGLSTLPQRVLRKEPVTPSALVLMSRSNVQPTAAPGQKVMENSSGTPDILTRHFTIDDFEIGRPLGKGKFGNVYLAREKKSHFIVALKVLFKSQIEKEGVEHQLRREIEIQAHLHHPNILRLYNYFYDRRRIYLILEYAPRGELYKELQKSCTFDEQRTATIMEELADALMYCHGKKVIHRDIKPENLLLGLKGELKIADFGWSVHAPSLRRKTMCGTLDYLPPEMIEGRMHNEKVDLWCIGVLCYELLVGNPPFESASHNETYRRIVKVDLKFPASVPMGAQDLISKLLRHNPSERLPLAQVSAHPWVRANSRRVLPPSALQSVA
Leucine-rich repeat serine/threonine-protein kinase 2, sequence (Q5S007 whole entry): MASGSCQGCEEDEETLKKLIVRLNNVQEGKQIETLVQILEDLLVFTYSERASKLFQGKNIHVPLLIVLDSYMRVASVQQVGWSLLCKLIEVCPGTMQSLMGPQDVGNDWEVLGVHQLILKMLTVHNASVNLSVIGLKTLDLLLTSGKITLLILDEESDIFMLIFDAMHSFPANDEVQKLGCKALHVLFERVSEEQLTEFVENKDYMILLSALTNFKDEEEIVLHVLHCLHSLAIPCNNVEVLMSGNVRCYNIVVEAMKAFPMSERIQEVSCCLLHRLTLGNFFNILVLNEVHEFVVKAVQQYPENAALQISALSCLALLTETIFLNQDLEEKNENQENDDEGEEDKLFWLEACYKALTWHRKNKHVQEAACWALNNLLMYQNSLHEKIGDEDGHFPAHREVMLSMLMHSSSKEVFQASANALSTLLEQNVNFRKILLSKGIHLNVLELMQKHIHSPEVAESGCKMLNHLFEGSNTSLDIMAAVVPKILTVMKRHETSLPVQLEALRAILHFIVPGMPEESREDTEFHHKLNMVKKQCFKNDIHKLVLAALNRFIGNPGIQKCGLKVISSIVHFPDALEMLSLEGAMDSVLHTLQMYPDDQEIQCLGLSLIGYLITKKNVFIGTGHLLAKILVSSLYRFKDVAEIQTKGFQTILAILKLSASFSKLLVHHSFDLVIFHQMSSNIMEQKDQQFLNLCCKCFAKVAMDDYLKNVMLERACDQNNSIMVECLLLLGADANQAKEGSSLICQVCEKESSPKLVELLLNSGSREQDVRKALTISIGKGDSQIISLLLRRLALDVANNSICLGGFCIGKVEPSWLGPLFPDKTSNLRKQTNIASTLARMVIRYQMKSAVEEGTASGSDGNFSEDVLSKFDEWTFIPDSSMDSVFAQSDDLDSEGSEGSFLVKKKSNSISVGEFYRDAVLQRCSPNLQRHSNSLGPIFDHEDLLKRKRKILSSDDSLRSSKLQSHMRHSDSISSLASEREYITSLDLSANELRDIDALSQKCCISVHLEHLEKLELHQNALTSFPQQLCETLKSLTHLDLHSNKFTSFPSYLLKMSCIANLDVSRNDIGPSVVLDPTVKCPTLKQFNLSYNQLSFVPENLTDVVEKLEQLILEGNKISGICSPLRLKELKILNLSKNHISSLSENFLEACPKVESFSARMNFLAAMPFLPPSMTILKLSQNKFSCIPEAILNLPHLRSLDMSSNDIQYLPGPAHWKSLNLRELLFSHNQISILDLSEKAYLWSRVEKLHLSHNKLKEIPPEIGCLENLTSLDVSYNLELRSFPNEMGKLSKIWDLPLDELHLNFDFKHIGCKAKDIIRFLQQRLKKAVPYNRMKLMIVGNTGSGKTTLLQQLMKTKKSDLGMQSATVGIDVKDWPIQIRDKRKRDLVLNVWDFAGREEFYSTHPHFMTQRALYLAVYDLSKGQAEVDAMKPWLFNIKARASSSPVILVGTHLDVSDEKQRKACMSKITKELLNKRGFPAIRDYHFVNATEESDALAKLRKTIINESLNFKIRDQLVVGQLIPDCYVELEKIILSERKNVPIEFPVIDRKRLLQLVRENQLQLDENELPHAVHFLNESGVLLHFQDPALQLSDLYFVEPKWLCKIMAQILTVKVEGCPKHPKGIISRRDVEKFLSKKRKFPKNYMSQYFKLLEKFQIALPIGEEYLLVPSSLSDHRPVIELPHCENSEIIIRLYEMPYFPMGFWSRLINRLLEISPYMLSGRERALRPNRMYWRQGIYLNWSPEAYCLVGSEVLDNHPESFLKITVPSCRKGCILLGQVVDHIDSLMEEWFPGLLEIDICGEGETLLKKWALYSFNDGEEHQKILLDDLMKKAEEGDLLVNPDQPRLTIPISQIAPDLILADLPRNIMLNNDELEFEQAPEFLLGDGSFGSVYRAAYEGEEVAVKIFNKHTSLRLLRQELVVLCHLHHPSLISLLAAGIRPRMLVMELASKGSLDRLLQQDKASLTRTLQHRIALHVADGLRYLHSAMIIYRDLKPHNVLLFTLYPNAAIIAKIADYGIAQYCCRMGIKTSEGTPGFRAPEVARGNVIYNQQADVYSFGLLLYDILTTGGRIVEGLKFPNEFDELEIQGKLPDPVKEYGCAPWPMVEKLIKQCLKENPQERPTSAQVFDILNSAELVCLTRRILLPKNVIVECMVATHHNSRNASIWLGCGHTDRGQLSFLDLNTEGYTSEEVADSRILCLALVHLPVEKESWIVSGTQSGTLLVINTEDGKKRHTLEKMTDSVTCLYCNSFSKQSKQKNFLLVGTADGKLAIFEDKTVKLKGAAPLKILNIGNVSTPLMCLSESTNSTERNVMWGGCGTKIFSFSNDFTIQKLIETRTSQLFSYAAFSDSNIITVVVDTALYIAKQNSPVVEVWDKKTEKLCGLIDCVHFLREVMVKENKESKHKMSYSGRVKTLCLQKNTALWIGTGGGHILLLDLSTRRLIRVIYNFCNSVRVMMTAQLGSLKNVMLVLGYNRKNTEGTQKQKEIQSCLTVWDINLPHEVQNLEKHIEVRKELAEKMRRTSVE
Mitogen-activated protein kinase 13, sequence (O15264 whole entry): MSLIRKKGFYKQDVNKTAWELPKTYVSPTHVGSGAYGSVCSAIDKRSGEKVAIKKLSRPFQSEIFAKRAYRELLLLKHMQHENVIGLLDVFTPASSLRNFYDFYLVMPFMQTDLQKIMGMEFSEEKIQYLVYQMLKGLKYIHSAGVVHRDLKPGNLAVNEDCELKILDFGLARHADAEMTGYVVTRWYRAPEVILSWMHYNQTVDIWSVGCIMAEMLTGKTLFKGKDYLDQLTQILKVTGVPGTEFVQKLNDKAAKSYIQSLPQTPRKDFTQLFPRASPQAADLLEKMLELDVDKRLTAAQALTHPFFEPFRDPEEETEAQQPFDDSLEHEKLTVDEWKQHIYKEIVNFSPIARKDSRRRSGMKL
Serine/threonine-protein kinase D2, sequence (Q9BZL6 whole entry): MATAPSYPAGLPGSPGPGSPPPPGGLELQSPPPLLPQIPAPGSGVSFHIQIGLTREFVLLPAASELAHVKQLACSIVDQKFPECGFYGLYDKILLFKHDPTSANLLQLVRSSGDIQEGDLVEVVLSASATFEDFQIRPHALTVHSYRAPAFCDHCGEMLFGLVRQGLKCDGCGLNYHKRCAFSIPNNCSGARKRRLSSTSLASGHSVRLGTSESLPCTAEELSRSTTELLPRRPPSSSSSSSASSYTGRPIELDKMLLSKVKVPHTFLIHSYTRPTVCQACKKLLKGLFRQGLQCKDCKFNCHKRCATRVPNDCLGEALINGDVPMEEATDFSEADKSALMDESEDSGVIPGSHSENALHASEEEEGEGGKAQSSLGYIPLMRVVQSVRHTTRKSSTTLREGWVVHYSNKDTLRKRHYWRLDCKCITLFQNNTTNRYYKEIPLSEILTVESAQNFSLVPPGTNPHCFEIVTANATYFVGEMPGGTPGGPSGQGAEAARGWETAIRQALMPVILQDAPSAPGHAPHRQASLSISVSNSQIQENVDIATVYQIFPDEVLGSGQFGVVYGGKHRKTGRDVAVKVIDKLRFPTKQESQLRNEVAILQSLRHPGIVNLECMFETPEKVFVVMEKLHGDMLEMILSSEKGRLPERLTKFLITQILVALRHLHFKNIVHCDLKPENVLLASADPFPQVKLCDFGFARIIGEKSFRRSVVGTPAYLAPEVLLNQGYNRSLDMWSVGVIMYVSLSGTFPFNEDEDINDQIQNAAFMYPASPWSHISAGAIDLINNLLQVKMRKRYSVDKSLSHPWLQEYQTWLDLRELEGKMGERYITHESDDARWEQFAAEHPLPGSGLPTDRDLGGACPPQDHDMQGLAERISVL
T2 sequence (O43614 whole entry): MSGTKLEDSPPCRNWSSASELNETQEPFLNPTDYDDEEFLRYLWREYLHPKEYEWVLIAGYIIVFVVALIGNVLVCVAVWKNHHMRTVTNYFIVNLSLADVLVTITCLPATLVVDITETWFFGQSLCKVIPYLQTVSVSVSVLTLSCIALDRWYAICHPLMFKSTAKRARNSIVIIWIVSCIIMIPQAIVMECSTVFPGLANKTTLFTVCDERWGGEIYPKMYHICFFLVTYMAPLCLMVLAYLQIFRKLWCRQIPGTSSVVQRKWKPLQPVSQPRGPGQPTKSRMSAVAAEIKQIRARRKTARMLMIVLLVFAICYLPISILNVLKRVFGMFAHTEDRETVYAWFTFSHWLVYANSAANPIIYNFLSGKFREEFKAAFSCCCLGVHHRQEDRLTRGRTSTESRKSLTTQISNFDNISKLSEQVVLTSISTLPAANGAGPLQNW
T1 sequence (O43613 whole entry): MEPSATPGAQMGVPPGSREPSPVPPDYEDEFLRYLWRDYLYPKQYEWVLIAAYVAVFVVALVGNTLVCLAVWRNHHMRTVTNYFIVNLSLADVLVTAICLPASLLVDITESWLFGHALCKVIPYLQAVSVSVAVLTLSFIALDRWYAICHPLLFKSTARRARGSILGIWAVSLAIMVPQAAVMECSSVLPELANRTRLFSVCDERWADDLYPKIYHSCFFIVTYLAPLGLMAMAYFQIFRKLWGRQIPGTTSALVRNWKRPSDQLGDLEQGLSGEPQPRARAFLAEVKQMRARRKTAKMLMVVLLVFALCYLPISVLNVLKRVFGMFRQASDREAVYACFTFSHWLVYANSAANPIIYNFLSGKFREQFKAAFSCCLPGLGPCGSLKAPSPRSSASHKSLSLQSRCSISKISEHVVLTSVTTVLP

SMILES: COc1ccc(N2CCN(CC(=O)c3ccc(O)c(C)c3O)CC2)cc1
- AC50 [1]: 19.5 µM (active)

SMILES: Cc1ccc(CNC(=O)COC(=O)Cn2nc(C)c([N+](=O)[O-])c2C)cc1
- IC50 (Melanocortin receptor 4): 14.4 µM (inactive)
- IC50 [2]: > 64.6 µM (inactive)

SMILES: COc1ccc(-n2nc3c(N4CCC(C(=O)NCc5cccc(C)c5)CC4)nnc(C)c3c2C)cc1
- EC50 [3]: > 91.1 µM (inactive)
- AC50 [4]: 23.8 µM (active)
- IC50 (Prothrombin): 48.7 µM (active)
- EC50 [5]: 12 µM (active)
- AC50 (Paired box protein Pax-8): 5.58 µM (active)
- EC50 [6]: 6.99 µM (active)
- EC50 [7]: 9.83 µM (active)
- EC50 [8]: > 91.1 µM (inactive)
- IC50 [9]: > 100 µM (inactive)
- IC50 [10]: 29.3 µM (active)

SMILES: CCSc1ccc([C@@H]2[C@H]3C(=O)N(CC)C(=O)[C@H]3[C@]3(C(=O)OC)CCCCN23)cc1OC
- IC50 [11]: 12.4 µM (inactive)
- IC50 (Orexin receptor type 2 [12]): 6.4 µM (active)
- IC50 (CHO-K1): > 66.3 µM (inactive)
- IC50 [13]: > 49.8 µM (inactive)
- IC50 (Orexin receptor type 2 [14]): > 50 µM (inactive)
- IC50 [15]: 2.65 µM (active)

SMILES: CCCCOc1ccc(C(C)(C)CC)cc1S(=O)(=O)Nc1ccc(-c2csc3ncnc(N)c23)cc1
- Ki [16]: 3.98 µM (active)
- Ki [17]: 6.31 µM (active)
- Ki [18]: 6.31 µM (active)
- Ki (Aurora kinase B): 6.31 µM (active)
- Ki [19]: 7.94 µM (active)
- Ki [20]: 2 µM (active)

SMILES: COc1cccc(-n2nc(C)c3c(=O)c4cc(Cl)ccc4n(O)c32)c1
- Ki (SRSF protein kinase 1): 7.94 µM (active)
- Ki (Aurora kinase B): 1.26 µM (active)
- Ki [21]: 6.31 µM (active)

SMILES: O=S(=O)(c1cccc2cnccc12)N1CCCNCC1 [FASUDIL]
- Ki [22]: > 1.58 µM (inactive)
- Ki [23]: > 5.01 µM (inactive)
- Ki [24]: > 2 µM (inactive)
- Ki [25]: > 1 µM (inactive)
- Ki [26]: > 2 µM (inactive)
- Ki [27]: > 1.26 µM (inactive)
- Ki [28]: > 1.58 µM (inactive)
- Ki [29]: > 5.01 µM (inactive)
- Ki [30]: > 0.631 µM (inactive)
- Ki [31]: > 1.58 µM (inactive)
- Ki [32]: > 1.58 µM (inactive)
- Ki [33]: > 1.26 µM (inactive)
- Ki [34]: > 1.58 µM (inactive)
- Ki [35]: > 7.94 µM (inactive)
- Ki (Activin receptor type-1): > 3.98 µM (inactive)
- Ki [36]: > 0.398 µM (inactive)
- Ki [37]: > 1.58 µM (inactive)
- Ki [38]: 2 µM (active)
- pKi [38]: 5.7
- Ki [39]: 1.26 µM (active)
- pKi [39]: 5.9
- Ki (Aurora kinase A): > 1.58 µM (inactive)
- Ki [40]: > 1.58 µM (inactive)
- Ki [41]: > 0.794 µM (inactive)

SMILES: CN(c1ncccc1CNc1nc(Nc2ccc3c(c2)CC(=O)N3)ncc1C(F)(F)F)S(C)(=O)=O [PF-00562271]
- Ki [42]: 0.0631 µM (active)
- Ki [43]: 0.0631 µM (active)
- Ki [44]: 0.0126 µM (active)
- Ki [35]: > 7.94 µM (inactive)
- Ki (Aurora kinase B): 0.0631 µM (active)
- Ki [38]: 0.158 µM (active)
- Ki [45]: 0.0631 µM (active)
- Ki [46]: 0.158 µM (active)
